Assays:
mAb 34-5-8S = test: Control: binding of free peptide to the immobilized 34-5-8S antibody surface; details: free peptide without H-2Dd at concentrations as high as 222 uM; SPR
H-2Dd = H-2Dd (Mus musculus, UniProt P01900); test: Solution phase competition assay; assay type: binding; details: data not shown
[1] = Solubility of synthetic peptides in water; assay type: physicochemical; details: peptides dissolved in dH2O; insoluble ones reconstituted in 20% DMSO

H-2Dd, sequence (P01900 whole entry, looked up): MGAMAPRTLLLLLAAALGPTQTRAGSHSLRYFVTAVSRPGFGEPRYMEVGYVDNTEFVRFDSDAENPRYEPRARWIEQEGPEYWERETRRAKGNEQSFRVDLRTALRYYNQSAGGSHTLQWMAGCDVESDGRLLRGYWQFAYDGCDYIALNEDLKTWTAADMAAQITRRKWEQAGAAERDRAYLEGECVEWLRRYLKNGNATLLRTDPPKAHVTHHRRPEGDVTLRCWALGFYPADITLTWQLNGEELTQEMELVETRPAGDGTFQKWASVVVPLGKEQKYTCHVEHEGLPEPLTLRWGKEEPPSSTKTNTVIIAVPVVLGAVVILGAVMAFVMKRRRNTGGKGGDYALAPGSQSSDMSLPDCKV

solubility in water / aqueous solution [1] | Sequence | signal of free peptide on immobilized 34-5-8S (mAb 34-5-8S) | relative binding to H-2Dd (H-2Dd)
 | AGPARAAAL [pD2359] | < 7 RU | binds better than pD239
relative aqueous insolubility | SGPVALVNF [pD46B] |  | 
relative aqueous insolubility | SGPVALVNFI [pD46A] |  | 

— paper PMC2191296 (The Journal of Experimental Medicine, 1993)
